Laboratory results from article PMC3638264 (Journal of Medicinal Chemistry, 2013).
Numbering of substitutions follows the chain as printed. Values belong to the compound of their own block, whether it stands above or below them.

Columns and labels:
AKR1C2 = molecular target: T1, AKR1C2 (Homo sapiens, UniProt P52895); assay: AKR1C2 inhibition, NADP+ dependent oxidation of S-tetralol; conditions: for IC50 Ratio 1C2/1C3: selectivity for AKR1C3 over AKR1C2
T1 sequence (P52895 1-323): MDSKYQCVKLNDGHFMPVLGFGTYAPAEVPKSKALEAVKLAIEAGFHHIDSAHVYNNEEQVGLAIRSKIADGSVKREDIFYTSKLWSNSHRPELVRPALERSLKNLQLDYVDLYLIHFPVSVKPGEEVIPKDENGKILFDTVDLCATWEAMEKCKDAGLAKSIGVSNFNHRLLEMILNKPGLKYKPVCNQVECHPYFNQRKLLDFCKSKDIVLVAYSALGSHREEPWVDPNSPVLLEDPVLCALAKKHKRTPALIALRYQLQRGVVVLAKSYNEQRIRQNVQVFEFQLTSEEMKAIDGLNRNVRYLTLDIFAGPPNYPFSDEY

oCOX-1 = molecular target: T2, oCOX-1 (Ovis aries, UniProt P05979); assay: continuous colorimetric COX-1 assay; assay type: biochemical, ovine; conditions: for inhibitory activity on COX-1 at highest concentration tested: 100 μM inhibitor
T2 sequence (P05979 25-600): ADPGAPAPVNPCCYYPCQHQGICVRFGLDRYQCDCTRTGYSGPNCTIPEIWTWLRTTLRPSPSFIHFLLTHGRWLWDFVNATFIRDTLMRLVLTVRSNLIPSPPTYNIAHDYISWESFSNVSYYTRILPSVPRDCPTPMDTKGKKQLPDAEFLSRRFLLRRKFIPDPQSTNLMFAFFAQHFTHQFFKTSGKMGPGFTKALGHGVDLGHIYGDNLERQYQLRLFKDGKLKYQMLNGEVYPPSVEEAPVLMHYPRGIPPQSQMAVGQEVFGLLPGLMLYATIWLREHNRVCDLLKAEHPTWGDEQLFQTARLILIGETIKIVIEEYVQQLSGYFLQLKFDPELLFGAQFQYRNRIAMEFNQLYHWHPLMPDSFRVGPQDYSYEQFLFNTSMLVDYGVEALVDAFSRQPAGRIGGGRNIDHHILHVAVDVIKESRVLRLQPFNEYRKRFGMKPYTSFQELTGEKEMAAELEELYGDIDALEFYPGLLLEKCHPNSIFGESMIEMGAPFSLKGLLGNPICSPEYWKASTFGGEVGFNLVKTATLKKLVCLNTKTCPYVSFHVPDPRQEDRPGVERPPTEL

LNCaP-AKR1C3 cells = assay: inhibition of testosterone formation in LNCaP-AKR1C3 cells; assay type: cell-based; conditions: 30 μM inhibitor, 0.1 μM Δ4-AD, 48 h
mouse COX-2 = molecular target: T3, mouse COX-2 (Mus musculus, UniProt Q05769); assay: discontinuous 14C-AA TLC-based COX assay, COX-2; conditions: for inhibition at 25 µM: read-out: wt mCOX 2 % inhib. @ 25 μM, 25 μM inhibitor, 5 μM AA; for wt mCOX 2 plateau of inhibition (P @ %): plateau at higher inhibitor concentrations
T3 sequence (Q05769 18-604): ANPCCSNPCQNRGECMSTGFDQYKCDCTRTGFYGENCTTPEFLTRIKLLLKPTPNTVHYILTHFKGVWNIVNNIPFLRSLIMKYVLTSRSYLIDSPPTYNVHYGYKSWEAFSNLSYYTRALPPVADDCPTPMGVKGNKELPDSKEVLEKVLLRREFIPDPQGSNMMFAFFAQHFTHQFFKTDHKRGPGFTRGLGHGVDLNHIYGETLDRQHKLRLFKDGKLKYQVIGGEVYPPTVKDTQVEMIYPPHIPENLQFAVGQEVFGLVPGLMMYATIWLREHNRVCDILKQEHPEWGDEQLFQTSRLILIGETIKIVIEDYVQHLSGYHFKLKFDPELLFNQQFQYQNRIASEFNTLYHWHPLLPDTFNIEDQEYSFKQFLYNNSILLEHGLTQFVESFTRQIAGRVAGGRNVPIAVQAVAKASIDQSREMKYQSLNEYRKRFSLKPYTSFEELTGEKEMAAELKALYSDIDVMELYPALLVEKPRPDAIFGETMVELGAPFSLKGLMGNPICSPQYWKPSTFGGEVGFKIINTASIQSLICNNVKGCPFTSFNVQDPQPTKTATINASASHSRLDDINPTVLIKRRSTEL

ovine COX-1 = molecular target: T4, ovine COX-1 (Ovis aries, UniProt P05979); assay: discontinuous 14C-AA TLC-based COX assay, COX-1; conditions: for inhibition at 25 µM: read-out: oCOX 1 % inhib. @ 25 μM, 25 μM inhibitor, 5 μM AA
T4 sequence (P05979 25-600): T2 sequence (P05979 25-600)

AKR1C3 = molecular target: T5, AKR1C3 (Homo sapiens, UniProt P42330); assay: AKR1C3 inhibition, NADP+ dependent oxidation of S-tetralol; conditions: for loss of AKR1C3 potency: relative to 44; for loss of inhibitory potency for AKR1C3: relative to indomethacin (1)
T5 sequence (P42330 1-323): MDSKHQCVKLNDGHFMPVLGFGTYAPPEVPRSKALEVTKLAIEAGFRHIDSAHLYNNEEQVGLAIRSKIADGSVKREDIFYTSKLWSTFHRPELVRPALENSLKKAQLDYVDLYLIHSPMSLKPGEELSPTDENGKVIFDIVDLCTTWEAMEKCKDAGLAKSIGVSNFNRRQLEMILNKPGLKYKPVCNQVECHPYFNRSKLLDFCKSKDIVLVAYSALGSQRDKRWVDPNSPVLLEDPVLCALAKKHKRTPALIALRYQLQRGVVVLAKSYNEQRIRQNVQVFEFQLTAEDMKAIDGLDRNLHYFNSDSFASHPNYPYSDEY

AKR1C1 = molecular target: T6, AKR1C1 (Homo sapiens, UniProt Q04828); assay type: biochemical; conditions: selectivity for AKR1C3 over AKR1C1
T6 sequence (Q04828 1-323): T1 sequence (P52895 1-323) with V38T, H47R, V54L, S87C, M151V, H170R, L172Q

AKR1C4 = molecular target: T7, AKR1C4 (Homo sapiens, UniProt P17516); assay type: biochemical; conditions: selectivity for AKR1C3 over AKR1C4
T7 sequence (P17516 1-323): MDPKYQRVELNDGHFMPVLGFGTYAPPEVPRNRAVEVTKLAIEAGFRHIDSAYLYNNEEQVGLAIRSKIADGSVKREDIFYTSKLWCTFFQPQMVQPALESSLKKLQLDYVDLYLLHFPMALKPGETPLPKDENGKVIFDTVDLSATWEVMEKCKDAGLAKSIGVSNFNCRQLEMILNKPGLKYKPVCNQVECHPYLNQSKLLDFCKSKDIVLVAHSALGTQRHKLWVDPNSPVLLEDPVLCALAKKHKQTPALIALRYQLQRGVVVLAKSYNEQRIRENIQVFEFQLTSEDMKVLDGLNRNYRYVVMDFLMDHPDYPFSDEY

selectivity for AKR1C3 over AKR1C2 (AKR1C2): 20 fold
IC50 Ratio 1C2/1C3 (AKR1C2): > 20
Compound: COc1ccc2c(c1)c1c(n2C(=O)c2ccc(Cl)cc2)CCC(C(=O)NS(C)(=O)=O)C1 (centres unmarked) [Compound 63, 9-(4-Chlorobenzoyl)-6-methoxy-N-(methylsulfonyl)-2,3,4,9-tetrahydro-1H-carbazole-3-carboxamide]

IC50 (oCOX-1): > 100000 nM
inhibition at 4 µM (mouse COX-2; read-out: wt mCOX 2 % inhib. @ 4 μM, 4 μM inhibitor, 5 μM AA): < 18%
inhibition at 25 µM (mouse COX-2): ≤ 34%
Compound: COc1ccc2c(c1)c(C)c(CCC(=O)O)n2C(=O)c1ccc(Cl)cc1 [Compound 44, 3-(1-(4-Chlorobenzoyl)-5-methoxy-3-methyl-1H-indol-2-yl)propanoic Acid]
inhibitory activity on COX-1 at highest concentration tested (oCOX-1): did not display significant inhibitory activity
inhibition of testosterone formation (LNCaP-AKR1C3 cells): robust inhibition

IC50 (ovine COX-1): 2400 nM
oCOX 1 plateau of inhibition (P @ %) (ovine COX-1; plateau at higher inhibitor concentrations): 56.1%
IC50 (mouse COX-2): 1480 nM
wt mCOX 2 plateau of inhibition (P @ %) (mouse COX-2): 62.6%
Compound: COc1ccc2c(c1)c1c(n2C(=O)c2ccc(Cl)cc2)CC(C(=O)O)CC1 (centres unmarked) [Compound 64, 9-(4-Chlorobenzoyl)-6-methoxy-2,3,4,9-tetrahydro-1H-carbazole-2-carboxylic Acid]

IC50 (oCOX-1): > 100000 nM
inhibition at 25 µM (ovine COX-1): ≤ 34%
inhibition at 25 µM (mouse COX-2): ≤ 34%
loss of AKR1C3 potency (AKR1C3): 3 fold
Compound: COc1ccc2c(c1)c(C)c(CCC(=O)NS(C)(=O)=O)n2C(=O)c1ccc(Cl)cc1 [Compound 50, 3-(1-(4-Chlorobenzoyl)-5-methoxy-3-methyl-1H-indol-2-yl)-N-(methylsulfonyl)propanamide]
inhibitory activity on COX-1 at highest concentration tested (oCOX-1): did not display significant inhibitory activity
inhibition of testosterone formation (LNCaP-AKR1C3 cells): robust inhibition

inhibition at 25 µM (ovine COX-1): ≤ 34%
inhibition at 25 µM (mouse COX-2): ≤ 34%
Compound: COc1ccc2c(c1)c(C)c(CC(C)(C)C(=O)O)n2C(=O)c1ccc(Cl)cc1 [Compound 48, 3-(1-(4-Chlorobenzoyl)-5-methoxy-3-methyl-1H-indol-2-yl)-2,2-dimethylpropanoic Acid]

IC50 (oCOX-1): 750 nM
wt mCOX 2 plateau of inhibition (P @ %) (mouse COX-2): 61.4%
Compound: COc1ccc2c(c1)c1c(n2C(=O)c2ccc(Cl)cc2)CCC(C(=O)O)C1 (centres unmarked) [Compound 61, 9-(4-Chlorobenzoyl)-6-methoxy-2,3,4,9-tetrahydro-1H-carbazole-3-carboxylic Acid]

loss of AKR1C3 potency (AKR1C3): 2 fold
Compound: COc1ccc2c(c1)c(C)c(CC(C)C(=O)O)n2C(=O)c1ccc(Cl)cc1 (centres unmarked) [Compound 49, 3-(1-(4-Chlorobenzoyl)-5-methoxy-3-methyl-1H-indol-2-yl)-2-methylpropanoic Acid]

inhibition at 25 µM (mouse COX-2): ≤ 34%
Compound: CCc1c(CCC(=O)O)n(C(=O)c2ccc(Cl)cc2)c2ccc(OC)cc12 [Compound 47, 3-(1-(4-Chlorobenzoyl)-3-ethyl-5-methoxy-1H-indol-2-yl)propanoic Acid]

Second part, the compound before the results:

Compound: COC(=O)Cc1c(C)n(C(=O)c2ccc(OC)cc2)c2ccc(OC)cc12 [Compound 13]
IC50 Ratio 1C2/1C3 (AKR1C2): >12

Compound: COc1ccc2c(c1)cc(C)n2C(=O)c1ccc(Cl)cc1 [Compound 19]
loss of inhibitory potency for AKR1C3 (AKR1C3): 36 fold

Compound: CCC(=O)Cc1cn(C(=O)OC)c2ccc(OC)cc12 [Compound 43]
IC50 Ratio 1C2/1C3 (AKR1C2): >4

Compound: COc1ccc2c(c1)c(CC(=O)NS(C)(=O)=O)c(C)n2C(=O)c1ccc(Cl)cc1 [Compound 14, 2-(1-(4-Chlorobenzoyl)-5-methoxy-2-methyl-1H-indol-3-yl)-N-(methylsulfonyl)acetamide]
loss of inhibitory potency for AKR1C3 (AKR1C3): 22 fold

Compound: COC(=O)Cc1c(C)n(C(=O)c2ccc(Cl)cc2)c2ccc(OC)cc12 [Compound 10]
loss of inhibitory potency for AKR1C3 (AKR1C3): 57 fold

Compound: COc1ccc2c(c1)c(CC(=O)O)c(C)n2C(=O)c1ccc(Cl)cc1 [Compound 1, 2-(1-(4-chlorobenzoyl)-5-methoxy-2-methyl-1H-indol-3-yl)acetic acid, reference compound]
inhibition of testosterone formation (LNCaP-AKR1C3 cells): robust inhibition

Compound: COc1ccc2c(c1)c(CC(=O)O)cn2C(=O)c1ccc(Cl)cc1 [Compound 20, 2-(1-(4-Chlorobenzoyl)-5-methoxy-1H-indol-3-yl)acetic Acid]
slope factor of inhibition dose–response curve (AKR1C3): 1

Compound: COC(=O)Cc1cn(C(=O)c2ccc(Cl)cc2)c2ccc(OC)cc12 [Compound 21]
IC50 Ratio 1C2/1C3 (AKR1C2): >8

Compound: COc1ccc2c(c1)c(CCC(=O)O)c(C)n2C(=O)c1ccc(Cl)cc1 [Compound 16, 3-(1-(4-Chlorobenzoyl)-5-methoxy-2-methyl-1H-indol-3-yl)propanoic Acid]
IC50 (oCOX-1): 48800 nM

Compound: O=C(O)Cc1cn(C(=O)c2ccc(Cl)cc2)c2ccc(F)cc12 [Compound 25]
increase in AKR1C2 inhibitory potency (AKR1C2; relative to des-methyl-indomethacin (20)): 4 fold

Compound: COc1ccc2c(c1)c(CC(=O)O)cn2C(=O)c1ccc(F)cc1 [Compound 22]
IC50 Ratio 1C2/1C3 (AKR1C2): >20

Compound: COc1ccc2c(c1)c(CC(=O)NS(=O)(=O)C(F)(F)F)cn2C(=O)c1ccc(Cl)cc1 [Compound 27, 2-(1-(4-Chlorobenzoyl)-5-methoxy-1H-indol-3-yl)-N-((trifluoromethyl)sulfonyl)acetamide]
IC50 (oCOX-1): 2190 nM

Compound: COc1ccc(C(=O)n2c(C)c(CC(=O)O)c3cc(OC)ccc32)cc1 [Compound 4]
selectivity for AKR1C3 over AKR1C2 (AKR1C2): over 300 fold

Compound: COc1ccc2c(c1)c(CC(=O)NS(=O)(=O)C(F)(F)F)c(C)n2C(=O)c1ccc(Cl)cc1 [Compound 15]
IC50 ratio AKR1C1/AKR1C3 (value in parentheses) (AKR1C1): > 135
IC50 ratio AKR1C4/AKR1C3 (value in parentheses) (AKR1C4): > 135
